Results published in patent US20070128217A1 (priority 2003, published 2007).

What was measured:
[1] = tested on: antibodies in sera from SARS patients (sera 1a, 1b, 2, 6, 37, 62, London, SARS-yellow, SARS-green); format: binding, human; parameters: Binding of serum 6 to linear peptides of protein X1 of SARS-CoV Urbani / Binding of serum 37 to linear peptides of protein X1 of SARS-CoV Urbani / Binding of serum 6 to looped/cyclic peptide (PEPSCAN-ELISA) / Binding of serum 37 to looped/cyclic peptide (PEPSCAN-ELISA) / Binding of serum 37 to looped/cyclic peptides of protein X1 of SARS-CoV Urbani / Binding of serum 6 to linear peptides of protein X2 / Binding of serum 37 to linear peptides of protein X2 / Binding of serum 37 to looped/cyclic peptides of protein X2 of SARS-CoV Urbani / Binding of serum 6 to linear peptides of protein M of SARS-CoV Urbani / Binding of serum 37 to linear peptides of protein M of SARS-CoV Urbani / Binding of serum 6 to looped/cyclic peptides of protein M of SARS-CoV Urbani / Binding of serum 37 to looped/cyclic peptides of protein M of SARS-CoV Urbani / Binding of serum 6 to linear peptides of protein X3 of SARS-CoV Urbani / Binding of serum 37 to linear peptides of protein X3 of SARS-CoV Urbani / Binding of serum 37 to looped/cyclic peptides of protein X3 of SARS-CoV Urbani / Binding of serum 6 to linear peptides of protein X4 of SARS-CoV Urbani / Binding of serum 37 to linear peptides of protein X4 of SARS-CoV Urbani / Binding of serum 37 to looped/cyclic peptides of protein X4 of SARS-CoV Urbani / Binding of serum 6 to linear peptides of protein X5 of SARS-CoV Urbani / Binding of serum 37 to linear peptides of protein X5 of SARS-CoV Urbani / Binding of serum 37 to looped/cyclic peptides of protein X5 of SARS-CoV Urbani / Binding of serum 6 to linear peptides of protein N of SARS-CoV Urbani / Binding of serum 37 to linear peptides of protein N of SARS-CoV Urbani / Binding of serum 6 to linear peptide (PEPSCAN-ELISA) / Binding of serum 1a to looped/cyclic peptides of protein N of SARS-CoV Urbani / Binding of serum 1b to looped/cyclic peptides of protein N of SARS-CoV Urbani / Binding of serum 2 to looped/cyclic peptides of protein N of SARS-CoV Urbani / Binding of serum 6 to looped/cyclic peptides of protein N of SARS-CoV Urbani / Binding of serum 37 to looped/cyclic peptides of protein N of SARS-CoV Urbani / Binding of serum 62 to looped/cyclic peptides of protein N of SARS-CoV Urbani / Binding of serum London to looped/cyclic peptides of protein N of SARS-CoV Urbani / Binding of serum SARS-green to looped/cyclic peptides of protein N of SARS-CoV Urbani: unit not given here
[2] = tested on: control sera (pooled serum of ten healthy LUMC hospital workers; commercial negative donor pooled serum from the Dutch bloodbank); format: binding, human; parameters: Binding of Control serum LUMC to linear peptides / Binding of Control serum Blood-bank to linear peptides / Binding of Control serum LUMC to looped peptides / Binding of Control Serum Blood-Bank to Looped peptides / Binding of Control serum LUMC to linear peptides of the protein M of SARS-CoV Urbani / Binding of Control serum Blood-bank to linear peptides of the protein M of SARS-CoV Urbani / Binding of Control serum LUMC to looped peptides of the protein M of SARS-CoV Urbani / Binding of Control Serum Blood-Bank to Looped peptides of the protein M of SARS-CoV Urbani: unit not given here
[3] = tested on: rabbit serum obtained by immunizing a rabbit with the SARS-CoV strain Frankfurt 1; format: binding; parameters: Binding of a rabbit serum to linear peptides / Binding of a rabbit serum to looped peptides / Rabbit serum linear peptides / Rabbit serum looped peptides / Binding of a rabbit serum to linear peptides of protein N of SARS-CoV Urbani (Rabbit serum linear peptides) / Binding of a rabbit serum to looped/cyclic peptides of protein N of SARS-CoV Urbani (Rabbit serum looped peptides): unit not given here

## DPAGGALIARCWYLH
[1]
  Binding of serum 1a to linear peptides of protein X5 of SARS-CoV Urbani: 0.7
  Binding of serum 1a to looped/cyclic peptides of protein X5 of SARS-CoV Urbani: 0.8
  Binding of serum 1b to linear peptides of protein X5 of SARS-CoV Urbani: 0.6
  Binding of serum 1b to looped/cyclic peptides of protein X5 of SARS-CoV Urbani: 0.5
  Binding of serum 2 to linear peptides of protein X5 of SARS-CoV Urbani: 0.4
  Binding of serum 2 to looped/cyclic peptides of protein X5 of SARS-CoV Urbani: 0.5
  Binding of serum 6 to linear peptides of protein X5 of SARS-CoV Urbani: 0.5
  Binding of serum 6 to looped/cyclic peptides of protein X5 of SARS-CoV Urbani: 0.4
  Binding of serum 37 to linear peptides of protein X5 of SARS-CoV Urbani: 0.8
  Binding of serum 37 to looped/cyclic peptides of protein X5 of SARS-CoV Urbani: 0.7
  Binding of serum 62 to linear peptides of protein X5 of SARS-CoV Urbani: 0.7
  Binding of serum 62 to looped/cyclic peptides of protein X5 of SARS-CoV Urbani: 0.6
  Binding of serum London to linear peptides of protein X5 of SARS-CoV Urbani: 0.6
  Binding of serum London to looped/cyclic peptides of protein X5 of SARS-CoV Urbani: 0.2
  Binding of serum SARS-green to linear peptides of protein X5 of SARS-CoV Urbani: 0.6
  Binding of serum SARS-green to looped/cyclic peptides of protein X5 of SARS-CoV Urbani: 0.6
  Binding of serum SARS-yellow to linear peptides of protein X5 of SARS-CoV Urbani: 0.2
  Binding of serum SARS-yellow to looped/cyclic peptides of protein X5 of SARS-CoV Urbani: 0.3
[2]
  Binding of Control Serum Blood-Bank to Looped peptides: 0.8
  Binding of Control serum Blood-bank to linear peptides: 0.7
  Binding of Control serum LUMC to linear peptides: 0.3
  Binding of Control serum LUMC to looped peptides: 0.6
[3]
  Rabbit serum linear peptides: 0.3
  Rabbit serum looped peptides: 0.5

## DPPNVQIHTIDGSSG
[1]
  Binding of serum 1a to linear peptides of protein X1 of SARS-CoV Urbani: 0.5
  Binding of serum 1a to looped/cyclic peptides of protein X1 of SARS-CoV Urbani: 0.4
  Binding of serum 1b to linear peptides of protein X1 of SARS-CoV Urbani: 0.4
  Binding of serum 1b to looped/cyclic peptides of protein X1 of SARS-CoV Urbani: 0.2
  Binding of serum 2 to linear peptides of protein X1 of SARS-CoV Urbani: 0.3
  Binding of serum 2 to looped/cyclic peptides of protein X1 of SARS-CoV Urbani: 0.2
  Binding of serum 6 to linear peptides of protein X1 of SARS-CoV Urbani: 0.3
  Binding of serum 6 to looped/cyclic peptides of protein X1 of SARS-CoV Urbani: 0.2
  Binding of serum 37 to linear peptides of protein X1 of SARS-CoV Urbani: 0.5
  Binding of serum 37 to looped/cyclic peptides of protein X1 of SARS-CoV Urbani: 0.3
  Binding of serum 62 to linear peptides of protein X1 of SARS-CoV Urbani: 0.4
  Binding of serum 62 to looped/cyclic peptides of protein X1 of SARS-CoV Urbani: 0.3
  Binding of serum London to linear peptides of protein X1 of SARS-CoV Urbani: 0.2
  Binding of serum London to looped/cyclic peptides of protein X1 of SARS-CoV Urbani: 0.2
  Binding of serum SARS-green to linear peptides of protein X1 of SARS-CoV Urbani: 0.2
  Binding of serum SARS-green to looped/cyclic peptides of protein X1 of SARS-CoV Urbani: 0.2
  Binding of serum SARS-yellow to linear peptides of protein X1 of SARS-CoV Urbani: 0.2
  Binding of serum SARS-yellow to looped/cyclic peptides of protein X1 of SARS-CoV Urbani: 0.2
[2]
  Binding of Control Serum Blood-Bank to Looped peptides: 0.4
  Binding of Control serum Blood-bank to linear peptides: 0.3
  Binding of Control serum LUMC to linear peptides: 0.3
  Binding of Control serum LUMC to looped peptides: 0.5
[3]
  Binding of a rabbit serum to linear peptides: 0.1
  Binding of a rabbit serum to looped peptides: 0.4

## DSGFAAYNRYRIGNY
[1]
  Binding of serum 1a to linear peptides of protein M of SARS-CoV Urbani: 0.6
  Binding of serum 1a to looped/cyclic peptides of protein M of SARS-CoV Urbani: 0.8
  Binding of serum 1b to linear peptides of protein M of SARS-CoV Urbani: 0.4
  Binding of serum 1b to looped/cyclic peptides of protein M of SARS-CoV Urbani: 0.6
  Binding of serum 2 to linear peptides of protein M of SARS-CoV Urbani: 0.4
  Binding of serum 2 to looped/cyclic peptides of protein M of SARS-CoV Urbani: 0.6
  Binding of serum 6 to linear peptides of protein M of SARS-CoV Urbani: 0.5
  Binding of serum 6 to looped/cyclic peptides of protein M of SARS-CoV Urbani: 0.6
  Binding of serum 37 to linear peptides of protein M of SARS-CoV Urbani: 0.4
  Binding of serum 37 to looped/cyclic peptides of protein M of SARS-CoV Urbani: 0.7
  Binding of serum 62 to linear peptides of protein M of SARS-CoV Urbani: 0.4
  Binding of serum 62 to looped/cyclic peptides of protein M of SARS-CoV Urbani: 0.6
  Binding of serum London to linear peptides of protein M of SARS-CoV Urbani: 0.3
  Binding of serum London to looped/cyclic peptides of protein M of SARS-CoV Urbani: 0.2
  Binding of serum SARS-green to linear peptides of protein M of SARS-CoV Urbani: 0.3
  Binding of serum SARS-green to looped/cyclic peptides of protein M of SARS-CoV Urbani: 0.4
  Binding of serum SARS-yellow to linear peptides of protein M of SARS-CoV Urbani: 0.1
  Binding of serum SARS-yellow to looped/cyclic peptides of protein M of SARS-CoV Urbani: 0.8
[2]
  Binding of Control Serum Blood-Bank to Looped peptides of the protein M of SARS-CoV Urbani: 0.5
  Binding of Control serum Blood-bank to linear peptides of the protein M of SARS-CoV Urbani: 0.5
  Binding of Control serum LUMC to linear peptides of the protein M of SARS-CoV Urbani: 0.5
  Binding of Control serum LUMC to looped peptides of the protein M of SARS-CoV Urbani: 0.5
[3]
  Rabbit serum linear peptides: 0.2
  Rabbit serum looped peptides: 0.3

## DTGIENATFFIFNKL
[1]
  Binding of serum 1a to linear peptides of protein X1 of SARS-CoV Urbani: 0.7
  Binding of serum 1a to looped/cyclic peptides of protein X1 of SARS-CoV Urbani: 0.6
  Binding of serum 1b to linear peptides of protein X1 of SARS-CoV Urbani: 0.5
  Binding of serum 1b to looped/cyclic peptides of protein X1 of SARS-CoV Urbani: 0.5
  Binding of serum 2 to linear peptides of protein X1 of SARS-CoV Urbani: 0.5
  Binding of serum 2 to looped/cyclic peptides of protein X1 of SARS-CoV Urbani: 0.6
  Binding of serum 6 to linear peptides of protein X1 of SARS-CoV Urbani: 0.4
  Binding of serum 6 to looped/cyclic peptides of protein X1 of SARS-CoV Urbani: 0.2
  Binding of serum 37 to linear peptides of protein X1 of SARS-CoV Urbani: 0.7
  Binding of serum 37 to looped/cyclic peptides of protein X1 of SARS-CoV Urbani: 0.7
  Binding of serum 62 to linear peptides of protein X1 of SARS-CoV Urbani: 0.6
  Binding of serum 62 to looped/cyclic peptides of protein X1 of SARS-CoV Urbani: 0.6
  Binding of serum London to linear peptides of protein X1 of SARS-CoV Urbani: 0.4
  Binding of serum London to looped/cyclic peptides of protein X1 of SARS-CoV Urbani: 0.2
  Binding of serum SARS-green to linear peptides of protein X1 of SARS-CoV Urbani: 0.3
  Binding of serum SARS-green to looped/cyclic peptides of protein X1 of SARS-CoV Urbani: 0.4
  Binding of serum SARS-yellow to linear peptides of protein X1 of SARS-CoV Urbani: 0.4
  Binding of serum SARS-yellow to looped/cyclic peptides of protein X1 of SARS-CoV Urbani: 0.6
[2]
  Binding of Control Serum Blood-Bank to Looped peptides: 0.7
  Binding of Control serum Blood-bank to linear peptides: 0.6
  Binding of Control serum LUMC to linear peptides: 0.5
  Binding of Control serum LUMC to looped peptides: 0.9
[3]
  Binding of a rabbit serum to linear peptides: 0.1
  Binding of a rabbit serum to looped peptides: 0.6
